Patent US8067424B2, “Selective inhibitors for cyclin-dependent kinases” (Emory University, priority 2007, dated 2011)
pIC50: −log10 of the molar value. Like-named read-outs stand apart in the source and are kept apart here.

Experiments:
Format in all cases: biochemical
SGK1 = target: T1, SGK1 (Homo sapiens, UniProt O00141); assay: Kinase screen: SGK assay
T1 sequence (O00141 1-431): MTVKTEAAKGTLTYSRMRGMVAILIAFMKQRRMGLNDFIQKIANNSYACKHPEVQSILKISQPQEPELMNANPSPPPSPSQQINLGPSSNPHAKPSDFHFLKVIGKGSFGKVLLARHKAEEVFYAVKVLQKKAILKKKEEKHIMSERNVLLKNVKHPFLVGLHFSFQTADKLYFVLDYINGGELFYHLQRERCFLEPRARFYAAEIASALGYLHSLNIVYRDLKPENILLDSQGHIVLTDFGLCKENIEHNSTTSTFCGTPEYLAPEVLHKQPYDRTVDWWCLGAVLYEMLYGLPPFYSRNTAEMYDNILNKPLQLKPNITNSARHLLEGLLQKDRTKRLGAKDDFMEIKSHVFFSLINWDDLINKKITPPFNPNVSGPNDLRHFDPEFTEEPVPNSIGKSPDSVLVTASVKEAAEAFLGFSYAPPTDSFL
Protocol: (§1) Generally, the same procedure was used for all assays. Since the total assay volume was 25.5 microliters, 0.5 microliters of inhibitors at 51× assay concentration were added to the plates before any other addition.
(§2) The basic procedure was to add 0.5 microliters inhibitor/control in DMSO to plate. Fifteen microliters of enzyme/substrate/buffer mix were added and incubated for 5 min. Ten microliters MgATP at the relevant concentration were added and incubated for 30 min. The assay was stopped by adding 5 microliters of 3% orthophosphoric acid. The assay was transferred to a p81 filter plate and read in a scintillation counter of 30 sec/well. Note that this assay procedure was not followed for MKK1, which instead involved a two-step assay, and PKC alpha, which required the addition of lipid vesicles.
SGK assay: SGK (5-20 mU diluted in 20 mM MOPS pH 7.5, 1 mM EDTA, 0.01% Brij35, 5% glycerol, 0.1% b-mercaptoethanol, 1 mg/ml BSA) was assayed against a modified Crosstide peptide […] (SEQ ID NO: 4) in a final volume of 25.5 μl containing 8 mM MOPS pH 7.0, 0.2 mM EDTA, 30 μM substrate peptide, 10 mM magnesium acetate and 0.02 mM [33P-g-ATP] (50-1000 cpm/pmole) and incubated for 30 min at room temperature. Assays were stopped by addition of 5 μl of 0.5 M (3%) orthophosphoric acid and then harvested onto P81 Unifilter plates with a wash buffer of 50 mM orthophosphoric acid.

CHK1 = target: T2, CHK1 (Homo sapiens, UniProt O14757); assay: Kinase screen: CHK1 assay
T2 sequence (O14757 1-476): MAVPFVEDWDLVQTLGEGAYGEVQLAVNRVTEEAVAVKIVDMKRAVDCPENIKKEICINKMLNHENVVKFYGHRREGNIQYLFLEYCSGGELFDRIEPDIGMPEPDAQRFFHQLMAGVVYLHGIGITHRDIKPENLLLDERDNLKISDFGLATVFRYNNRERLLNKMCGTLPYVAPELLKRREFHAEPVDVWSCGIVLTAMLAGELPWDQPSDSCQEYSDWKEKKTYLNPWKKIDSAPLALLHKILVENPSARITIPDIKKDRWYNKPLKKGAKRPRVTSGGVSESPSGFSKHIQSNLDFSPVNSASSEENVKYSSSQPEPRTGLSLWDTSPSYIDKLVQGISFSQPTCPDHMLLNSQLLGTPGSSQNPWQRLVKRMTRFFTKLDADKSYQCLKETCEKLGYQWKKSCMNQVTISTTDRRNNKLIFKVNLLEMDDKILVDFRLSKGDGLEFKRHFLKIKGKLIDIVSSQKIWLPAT
Protocol: as §1, §2
CHK1 assay: CHK1 (5-20 mU diluted in 20 mM MOPS pH 7.5, 1 mM EDTA, 0.1% b-mercaptoethanol, 0.01% Brij-35, 5% glycerol, 1 mg/ml BSA) was assayed against CHKtide substrate peptide ([…]) (SEQ ID NO: 12) in a final volume of 25.5 μl containing 8 mM MOPS pH 7.0, 0.2 mM EDTA, 200 μM CHKtide, 10 mM magnesium acetate and 0.02 mM [33P-g-ATP] (50-1000 cpm/pmole) and incubated for 30 min at room temperature Assays were stopped by addition of 5 μl of 0.5 M (3%) orthophosphoric acid and then harvested onto P81 Unifilter plates with a wash buffer of 50 mM orthophosphoric acid.

Lck = Lck (Homo sapiens, UniProt P06239); assay: Kinase screen: LCK assay
Protocol: as §1, §2
(500-1000 cpm/pmole) and incubated for 15 min at room temperature Assays were stopped by addition of 5 μl of 0.5 M (3%) orthophosphoric acid and then harvested onto P81 Unifilter plates with a wash buffer of 50 mM orthophosphoric acid.

CDK 5 = CDK 5 (Homo sapiens, UniProt Q00535); assay: CDK5 in vitro kinase inhibition (protocol similar to Example 14); conditions: for remaining activity at 0.1 µM: 100 nM, mean of three (standard deviation), read-out: CDK5 % remaining kinase activity after incubation with 100 nM of compound; for pIC50: Table 7, mean of three experiments
Protocol: Prepared test compounds, prepared at concentrations of 1000, 100, 10, 1 and 0.1 μM. Diluted 1 in 40 in ddH2O and added 1 μl of test compound or DMSO (controls). • 3. Incubated at 30° C. for 30 mins in a water bath. • 4. Added 10 µl of ATP […] per reaction to get a final concentration of 2 μM ATP. • 5. Made up to 25 μl total volume with ddH2O • 6. Incubated for 20 min at 30° C. in a water bath • 7. Used the PKLight Kinase assay (Cambrex, UK), add to each reaction 10 μl of stop reaction and mix thoroughly. Incubated at room temp for 10 min. • 8. Added 20 μ1 Luciferase reaction mixture (Cambrex, UK) per reaction, and further incubated at room temp for 10 mins and determined luciferase activities according to manufacturer's methods. Kinase reactions were added to 96 well microplates and luciferase activities determined using a Packard TopCount NXT™ luminescent counter (TopCount 9904). The luminometer was programmed to take a read time of 0.1 integrated reading and emission of light was detectable at 560 nm. • 9. All kinase inhibition assays were carried out in triplicate. As the bioluminescent signal is inversely proportional to kinase activity, all values were deducted from the no enzyme control. These values were then plotted utilizing the enzyme control as a reference to 100% activity and compared to all other values.
This example provides in vitro kinase inhibition data for various compounds within the scope of the invention versus CDK 2, CDK 4, CDK, 5, CDK 7 and CDK 9. The protocol was similar to that shown in Example 14 Inhibition of the protein kinases was performed in triplicate using each compound at 100 nM.
This example provides in vitro kinase inhibition data for various compounds within the scope of the invention versus CDK 2, CDK 4, CDK, 5, CDK 7 and CDK 9.

[1] = 10 micromolar compound, read-out: mean activity remaining (as a percentage of the original activity), SGK1
[2] = 10 micromolar compound, read-out: mean activity remaining (as a percentage of the original activity), CHK 1
[3] = 10 micromolar compound, read-out: mean activity remaining (as a percentage of the original activity), Lck

Sequence of CDK 5 (Q00535 whole entry): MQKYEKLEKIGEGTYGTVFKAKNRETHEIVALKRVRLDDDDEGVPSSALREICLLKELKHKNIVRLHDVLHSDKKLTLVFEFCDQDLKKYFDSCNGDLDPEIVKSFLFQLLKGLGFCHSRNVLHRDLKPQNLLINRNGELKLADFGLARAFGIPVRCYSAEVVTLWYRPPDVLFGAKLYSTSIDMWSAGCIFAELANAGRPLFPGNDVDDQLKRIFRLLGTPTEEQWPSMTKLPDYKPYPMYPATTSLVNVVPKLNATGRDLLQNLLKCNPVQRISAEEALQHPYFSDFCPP
Sequence of CDK 5 (Q15078 whole entry partner): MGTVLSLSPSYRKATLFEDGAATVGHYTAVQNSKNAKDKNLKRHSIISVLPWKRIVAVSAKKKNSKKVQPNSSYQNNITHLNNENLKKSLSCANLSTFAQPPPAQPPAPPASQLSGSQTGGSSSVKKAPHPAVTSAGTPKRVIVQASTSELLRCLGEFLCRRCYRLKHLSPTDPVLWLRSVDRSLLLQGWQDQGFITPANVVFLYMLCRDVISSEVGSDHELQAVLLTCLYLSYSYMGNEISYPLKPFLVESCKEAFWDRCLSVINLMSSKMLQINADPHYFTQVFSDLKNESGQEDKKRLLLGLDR
Sequence of Lck (P06239 whole entry, species assumed): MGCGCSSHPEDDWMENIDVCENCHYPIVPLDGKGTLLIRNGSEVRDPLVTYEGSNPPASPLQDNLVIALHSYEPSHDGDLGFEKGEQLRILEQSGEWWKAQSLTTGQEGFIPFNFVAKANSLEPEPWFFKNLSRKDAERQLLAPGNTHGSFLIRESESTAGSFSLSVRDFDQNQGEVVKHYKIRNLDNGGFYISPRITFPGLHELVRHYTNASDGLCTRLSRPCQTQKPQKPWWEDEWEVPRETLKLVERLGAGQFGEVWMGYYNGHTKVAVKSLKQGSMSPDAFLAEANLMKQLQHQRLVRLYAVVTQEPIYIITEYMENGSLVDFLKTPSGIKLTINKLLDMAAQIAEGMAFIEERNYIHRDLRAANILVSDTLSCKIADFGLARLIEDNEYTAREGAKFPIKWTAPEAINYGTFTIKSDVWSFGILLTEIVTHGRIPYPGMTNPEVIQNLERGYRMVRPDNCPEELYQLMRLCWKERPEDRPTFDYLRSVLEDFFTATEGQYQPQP

| SMILES | remaining activity at 10 µM (SGK1; [1]) [%] | remaining activity at 10 µM (CHK1; [2]) [%] | remaining activity at 10 µM (Lck; [3]) [%] | remaining activity at 0.1 µM (CDK 5) [%] | mean activity remaining (as a percentage of the original activity), SGK1 (SGK1; 10 micromolar compound) [%] | mean activity remaining (as a percentage of the original activity), CHK 1 (CHK1; 10 micromolar compound) [%] | mean activity remaining (as a percentage of the original activity), Lck (Lck; 10 micromolar compound) [%] | remaining activity at 10 µM (SGK1; SGK1, 10 μM, read-out: Mean Remaining Enzyme Activity (%)) [%] | remaining activity at 10 µM (CHK1; CHK1, 10 μM, read-out: Mean Remaining Enzyme Activity (%)) [%] | remaining activity at 10 µM (Lck; Lck, 10 μM, read-out: Mean Remaining Enzyme Activity (%)) [%] | pIC50 (CDK 5) |
| --- | --- | --- | --- | --- | --- | --- | --- | --- | --- | --- | --- |
| CC[C@H](CO)Nc1cc(NCc2ccccc2)n2ncc(C(C)C)c2n1 [ICEC0067] | 89 | 100 | 70 | 84 |  |  |  |  |  |  |  |
| CC(C)c1cnn2c(NCc3ccccc3F)cc(NCCCCCN)nc12 [ICEC-0232] |  |  |  |  | 50 | 87 | 62 |  |  |  |  |
| CC(C)c1cnn2c(NCc3ccccc3)cc(NCCCCCCCN)nc12 [BS-181] |  |  |  |  |  |  |  | 42 | 80 | 95 |  |
| CC(C)c1cnn2c(NCc3ccccc3)cc(N[C@@H](CO)[C@H](O)CO)nc12 [ICEC0318, (3S)-3-(7-(Benzylamino)-3-isopropylpyrazolo[1,5-a]pyrimidin-5-ylamino)butane-1,2,4-triol] | 92 | 98 | 85 | 14 |  |  |  |  |  |  | 7.52 |
| C=C[C@H](CO)Nc1cc(NCc2ccccc2)n2ncc(C(C)C)c2n1 [ICEC0065] | 84 | 87 | 74 | 83 |  |  |  |  |  |  | < 6.00 |
